Assay results reported in ChEMBL document CHEMBL3769398 (J Med Chem, 2016).
Each block holds one compound with its values, some of them ahead of it.

Experiments:
[1] = molecular target: T1, Histone deacetylase 8 (Homo sapiens, UniProt Q9BY41); assay: Inhibition of human KDAC8
T1 sequence (Q9BY41 whole entry): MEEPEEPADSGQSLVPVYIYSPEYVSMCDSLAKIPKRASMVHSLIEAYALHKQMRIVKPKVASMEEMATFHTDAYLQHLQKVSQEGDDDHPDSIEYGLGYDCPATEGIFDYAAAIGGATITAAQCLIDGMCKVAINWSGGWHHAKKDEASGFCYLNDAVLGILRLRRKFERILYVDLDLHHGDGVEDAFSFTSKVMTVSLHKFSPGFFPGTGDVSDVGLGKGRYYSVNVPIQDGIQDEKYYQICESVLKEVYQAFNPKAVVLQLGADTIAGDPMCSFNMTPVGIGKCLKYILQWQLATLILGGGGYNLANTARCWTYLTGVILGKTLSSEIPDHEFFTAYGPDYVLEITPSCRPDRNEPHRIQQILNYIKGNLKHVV

[2] = molecular target: T2, Protein deacetylase HDAC6 (Homo sapiens, UniProt Q9UBN7); assay: Inhibition of human KDAC6
T2 sequence (Q9UBN7 whole entry): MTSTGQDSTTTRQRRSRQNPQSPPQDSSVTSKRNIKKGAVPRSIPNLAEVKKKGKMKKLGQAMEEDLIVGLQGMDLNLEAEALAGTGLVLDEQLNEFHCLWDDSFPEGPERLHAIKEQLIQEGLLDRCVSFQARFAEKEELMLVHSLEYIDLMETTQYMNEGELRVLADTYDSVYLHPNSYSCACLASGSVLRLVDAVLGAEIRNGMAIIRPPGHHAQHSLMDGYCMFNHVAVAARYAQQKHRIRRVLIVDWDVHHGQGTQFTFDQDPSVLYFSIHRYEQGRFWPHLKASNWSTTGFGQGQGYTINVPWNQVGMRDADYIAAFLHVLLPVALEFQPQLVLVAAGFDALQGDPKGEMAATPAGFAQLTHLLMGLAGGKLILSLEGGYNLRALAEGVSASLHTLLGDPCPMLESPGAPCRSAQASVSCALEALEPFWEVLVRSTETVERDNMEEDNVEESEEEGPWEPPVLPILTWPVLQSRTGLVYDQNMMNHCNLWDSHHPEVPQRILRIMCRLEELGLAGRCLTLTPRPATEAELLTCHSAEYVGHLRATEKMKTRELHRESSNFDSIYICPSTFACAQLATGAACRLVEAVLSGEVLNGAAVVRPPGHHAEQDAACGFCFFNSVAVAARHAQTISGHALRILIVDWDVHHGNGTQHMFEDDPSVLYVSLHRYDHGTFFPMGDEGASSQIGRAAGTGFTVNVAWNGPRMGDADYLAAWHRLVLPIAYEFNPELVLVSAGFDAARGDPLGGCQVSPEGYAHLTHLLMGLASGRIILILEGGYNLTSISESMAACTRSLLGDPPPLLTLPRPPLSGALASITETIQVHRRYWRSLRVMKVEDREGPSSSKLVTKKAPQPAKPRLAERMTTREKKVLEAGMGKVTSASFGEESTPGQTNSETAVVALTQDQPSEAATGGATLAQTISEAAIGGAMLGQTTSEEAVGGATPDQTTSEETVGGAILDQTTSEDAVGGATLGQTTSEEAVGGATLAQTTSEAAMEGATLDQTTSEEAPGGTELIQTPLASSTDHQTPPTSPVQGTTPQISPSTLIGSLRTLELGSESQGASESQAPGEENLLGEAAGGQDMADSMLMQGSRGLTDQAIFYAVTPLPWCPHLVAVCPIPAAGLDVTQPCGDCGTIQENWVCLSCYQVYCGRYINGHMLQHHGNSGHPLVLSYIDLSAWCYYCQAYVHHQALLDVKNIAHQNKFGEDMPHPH

[3] = molecular target: T3, Histone deacetylase 3 (Homo sapiens, UniProt O15379); assay: Inhibition of human KDAC3
T3 sequence (O15379 whole entry): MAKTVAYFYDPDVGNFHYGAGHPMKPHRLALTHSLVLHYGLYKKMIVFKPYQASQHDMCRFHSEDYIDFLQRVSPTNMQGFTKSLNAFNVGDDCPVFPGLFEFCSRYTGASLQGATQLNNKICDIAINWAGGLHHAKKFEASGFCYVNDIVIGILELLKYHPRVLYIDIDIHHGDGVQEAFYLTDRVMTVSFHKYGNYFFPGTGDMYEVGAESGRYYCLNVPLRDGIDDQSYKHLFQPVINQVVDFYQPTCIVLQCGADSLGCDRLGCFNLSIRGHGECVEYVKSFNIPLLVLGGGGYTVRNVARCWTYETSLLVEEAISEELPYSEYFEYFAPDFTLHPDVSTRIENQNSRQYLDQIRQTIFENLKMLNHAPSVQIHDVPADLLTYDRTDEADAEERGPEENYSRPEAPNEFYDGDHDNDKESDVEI

[4] = molecular target: T4, Histone deacetylase 1 (Homo sapiens, UniProt Q13547); assay: Inhibition of human KDAC1
T4 sequence (Q13547 whole entry): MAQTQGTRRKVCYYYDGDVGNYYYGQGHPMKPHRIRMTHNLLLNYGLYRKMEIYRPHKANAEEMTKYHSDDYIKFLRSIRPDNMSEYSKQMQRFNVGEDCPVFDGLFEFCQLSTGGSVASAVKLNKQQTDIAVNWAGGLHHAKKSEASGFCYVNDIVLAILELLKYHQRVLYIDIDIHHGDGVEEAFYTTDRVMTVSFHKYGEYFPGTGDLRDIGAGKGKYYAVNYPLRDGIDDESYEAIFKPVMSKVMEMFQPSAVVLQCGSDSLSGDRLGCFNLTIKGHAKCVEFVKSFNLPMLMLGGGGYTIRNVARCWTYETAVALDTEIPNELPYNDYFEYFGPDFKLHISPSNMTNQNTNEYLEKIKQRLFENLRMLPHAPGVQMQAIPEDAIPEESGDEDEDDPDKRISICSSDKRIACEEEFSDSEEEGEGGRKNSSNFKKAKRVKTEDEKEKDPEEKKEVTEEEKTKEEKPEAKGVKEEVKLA

[5] = molecular target: T1, Histone deacetylase 8; assay: Inhibition of human KDAC8 by fluorescence assay
[6] = molecular target: T2, Protein deacetylase HDAC6; assay: Inhibition of human KDAC6 by fluorescence assay
[7] = molecular target: T1, Histone deacetylase 8; assay: Inhibition of recombinant human KDAC8 using FAM-labelled substrate B incubated for 60 mins by microfluidic chip-based assay
[8] = molecular target: T4, Histone deacetylase 1; assay: Inhibition of recombinant human KDAC1 using FAM-labelled substrate A incubated for 60 mins by microfluidic chip-based assay
[9] = molecular target: T3, Histone deacetylase 3; assay: Inhibition of recombinant human KDAC3 using FITC-p53 acetylated peptide substrate incubated for 60 mins by microfluidic chip-based assay
[10] = molecular target: T1, Histone deacetylase 8; assay: Inhibition of full length human recombinant KDAC8 using fluorophore-conjugated substrate measured as fluorigenic release of 7-amino-4-methylcoumarin by microtiter plate reader analysis

- IC50 [1]: > 30 µM
- IC50 [2]: 1.61 µM
- IC50 [3]: 0.47 µM
- IC50 [4]: 3.48 µM
SMILES: CC(=O)SCC/C=C/[C@@H]1CC(=O)NCc2ccc(cc2)C2=N[C@@](C)(CS2)C(=O)N[C@@H](C(C)C)C(=O)O1

- IC50 [5]: > 30 µM
- IC50 [6]: > 30 µM
SMILES: Nc1ccccc1NC(=O)c1ccc(-c2cn(CCc3ccsc3)nn2)cc1

SMILES: CC(C)[C@@H]1NC(=O)[C@@H]2CCCN2C(=O)[C@H]2CCCN2C(=O)C[C@@H](C(=O)NCCCC(=O)NO)NC1=O
- IC50 [7]: > 30 µM
- IC50 [8]: 25.1 µM
- IC50 [9]: 13.7 µM

SMILES: CC(C)[C@@H]1NC(=O)[C@H]2CCCN2C(=O)[C@@H]2CCCN2C(=O)C[C@H](C(=O)NCCCC(=O)NO)NC1=O
- IC50 [7]: > 30 µM
- IC50 [8]: > 30 µM
- IC50 [9]: > 30 µM

SMILES: CCCCCCCC(=O)SCC/C=C/[C@@H]1CC(=O)NCc2nc(cs2)C2=N[C@@](C)(CS2)C(=O)N[C@@H](C(C)C)C(=O)O1 [LARGAZOLE]
- IC50 [10]: > 30 µM
